Data from patent US20210045385A1, “PYRIDAZINONE-SUBSTITUTED KETOXIMES AS HERBICIDES” (FMC Corporation, priority 2018, published 2021).

Tests used:
Assay type in all cases: in vivo
[1] = test system: Italian ryegrass (Lolium mutiflorum); test: Test C preemergence, visual plant response rating; conditions: Test C, 0 is no effect, 100 is complete control
Summary of the method: (§1)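 Seeds sown in a loam–sand blend got a directed preemergence soil spray; postemergence plants (2–10 cm, one- to two-leaf stage) were sprayed with compound in a non-phytotoxic solvent plus surfactant. Injury was scored visually against untreated controls after about 10 d in a greenhouse on a 0–100 scale (100 = complete control).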

[2] = test system: foxtail, giant (giant foxtail, Setaria faberi); test: Test C preemergence, visual plant response rating; conditions: Test C, 0 is no effect, 100 is complete control
Summary of the method: as §1

[3] = test system: barnyardgrass (Echinochloa crus-galli); test: Test C preemergence, visual plant response rating; conditions: Test C, 0 is no effect, 100 is complete control
Summary of the method: as §1

kochia (Bassia scoparia) [4] = test: Test C preemergence, visual plant response rating; conditions: Test C, 0 is no effect, 100 is complete control
Summary of the method: as §1

[5] = test system: pigweed (Amaranthus retroflexus); test: Test C preemergence, visual plant response rating; conditions: Test C, 0 is no effect, 100 is complete control
Summary of the method: as §1

[6] = test system: sedge umbrella (small-flower umbrella sedge, Cyperus difformis); test: Test D flooded paddy test, visual plant response rating; conditions: 250 g ai/ha, scale 0 to 100 (0 no effect, 100 complete control), 13 to 15 d
Summary of the method: (§2)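 Plants grown to the 2-leaf stage; pots flooded to 3 cm above soil and compound applied directly into paddy water, depth held throughout. Kept in greenhouse 13 to 15 d, then rated visually against untreated controls on a 0–100 scale (0 no effect, 100 complete control).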

[7] = test system: duck salad (Heteranthera limosa); test: as above; conditions: 250 g ai/ha, scale 0 to 100 (0 no effect, 100 complete control), 13 to 15 d
Summary of the method: as §2

[8] = test system: barnyardgrass (Echinochloa crus-galli); test: as above; conditions: 250 g ai/ha, scale 0 to 100 (0 no effect, 100 complete control), 13 to 15 d
Summary of the method: as §2

rice (Oryza sativa) = test: as above; conditions: 250 g ai/ha, scale 0 to 100 (0 no effect, 100 complete control), 13 to 15 d
Summary of the method: as §2

[9] = test system: Italian ryegrass (Lolium mutiflorum); test: Test C postemergence, visual plant response rating
Summary of the method: as §1

[10] = test system: foxtail, giant (giant foxtail, Setaria faberi); test: Test C postemergence, visual plant response rating
Summary of the method: as §1

[11] = test system: galium (catchweed bedstraw, Galium aparine); test: Test C postemergence, visual plant response rating
Summary of the method: as §1

corn (Zea mays) = test: Test C postemergence, visual plant response rating
Summary of the method: as §1

[12] = test system: barnyardgrass (Echinochloa crus-galli); test: Test C postemergence, visual plant response rating
Summary of the method: as §1

kochia (Bassia scoparia) [13] = test: Test C postemergence, visual plant response rating
Summary of the method: as §1

[14] = test system: blackgrass (Alopecurus myosuroides); test: Test C postemergence, visual plant response rating
Summary of the method: as §1

[15] = test system: ragweed (common ragweed, Ambrosia artemisiifolia); test: Test C postemergence, visual plant response rating
Summary of the method: as §1

[16] = test system: pigweed (Amaranthus retroflexus); test: Test C postemergence, visual plant response rating
Summary of the method: as §1

[17] = test system: wheat (Triticum aestivum); test: Test C postemergence, visual plant response rating
Summary of the method: as §1

[18] = Test C, postemergence, 125 g ai/ha

Compound | Ryegrass, Italian plant response rating (0 to 100 scale) ([1]; 31 g ai/ha) | Ryegrass, Italian plant response rating (0 to 100 scale) ([1]; 125 g ai/ha) | Foxtail, Giant plant response rating (0 to 100 scale) ([2]; 31 g ai/ha) | Foxtail, Giant plant response rating (0 to 100 scale) ([2]; 125 g ai/ha) | Barnyardgrass plant response rating (0 to 100 scale) ([3]; 31 g ai/ha) | Barnyardgrass plant response rating (0 to 100 scale) ([3]; 125 g ai/ha) | Kochia plant response rating (0 to 100 scale) (kochia (Bassia scoparia) [4]; 31 g ai/ha) | Kochia plant response rating (0 to 100 scale) (kochia (Bassia scoparia) [4]; 125 g ai/ha) | Pigweed plant response rating (0 to 100 scale) ([5]; 31 g ai/ha) | Pigweed plant response rating (0 to 100 scale) ([5]; 125 g ai/ha) | Plant response rating, Sedge, Umbrella (Flood) [6] | Plant response rating, Ducksalad (Flood) [7] | Plant response rating, Barnyardgrass (Flood) [8] | Plant response rating, Rice (Flood) (rice (Oryza sativa)) | Ryegrass, Italian plant response rating (0 to 100 scale) ([9]; Postemergence, 31 g ai/ha) | Ryegrass, Italian plant response rating (0 to 100 scale) [9, 18] | Foxtail, Giant plant response rating (0 to 100 scale) ([10]; Postemergence, 31 g ai/ha) | Foxtail, Giant plant response rating (0 to 100 scale) [10, 18] | Galium plant response rating (0 to 100 scale) ([11]; Postemergence, 31 g ai/ha) | Galium plant response rating (0 to 100 scale) [11, 18] | other results
CC(C)O/N=C(/c1c(O)c(Cl)nn(C)c1=O)c1cc(Br)cc2ccccc12 [Compound 232] | 0 | 0 | 70 | 100 | 60 | 100 | 0 | 10 | 70 | 90 | 95 | 30 | 30 | 0 | 0 | 0 | 60 | 80 | 80 | 100 | Corn plant response rating (0 to 100 scale) (corn (Zea mays); Postemergence, 31 g ai/ha): 0; Corn plant response rating (0 to 100 scale) (corn (Zea mays); [18]): 10; Barnyardgrass plant response rating (0 to 100 scale) ([12]; Postemergence, 31 g ai/ha): 40; Barnyardgrass plant response rating (0 to 100 scale) [12, 18]: 90; Kochia plant response rating (0 to 100 scale) (kochia (Bassia scoparia) [13]; Postemergence, 31 g ai/ha): 20; Kochia plant response rating (0 to 100 scale) (kochia (Bassia scoparia) [13]; [18]): 50; Blackgrass plant response rating (0 to 100 scale) ([14]; Postemergence, 31 g ai/ha): 20; Blackgrass plant response rating (0 to 100 scale) [14, 18]: 50; Ragweed plant response rating (0 to 100 scale) ([15]; Postemergence, 31 g ai/ha): 100; Ragweed plant response rating (0 to 100 scale) [15, 18]: 100; Pigweed plant response rating (0 to 100 scale) ([16]; Postemergence, 31 g ai/ha): 70; Pigweed plant response rating (0 to 100 scale) [16, 18]: 90; Wheat plant response rating (0 to 100 scale) ([17]; Postemergence, 31 g ai/ha): 0; Wheat plant response rating (0 to 100 scale) [17, 18]: 0
CC(C)O/N=C(\c1c(O)c(Cl)nn(C)c1=O)c1cc(Br)cc2ccccc12 [Compound 233] | 0 | 0 | 60 | 100 | 90 | 100 | 0 | 0 | 90 | 90 | 85 | 0 | 30 | 0 | 0 | 0 | 30 | 80 | 60 | 90 | Corn plant response rating (0 to 100 scale) (corn (Zea mays); Postemergence, 31 g ai/ha): 0; Corn plant response rating (0 to 100 scale) (corn (Zea mays); [18]): 10; Barnyardgrass plant response rating (0 to 100 scale) ([12]; Postemergence, 31 g ai/ha): 40; Barnyardgrass plant response rating (0 to 100 scale) [12, 18]: 60; Kochia plant response rating (0 to 100 scale) (kochia (Bassia scoparia) [13]; Postemergence, 31 g ai/ha): 0; Kochia plant response rating (0 to 100 scale) (kochia (Bassia scoparia) [13]; [18]): 10; Blackgrass plant response rating (0 to 100 scale) ([14]; Postemergence, 31 g ai/ha): 0; Blackgrass plant response rating (0 to 100 scale) [14, 18]: 30; Ragweed plant response rating (0 to 100 scale) ([15]; Postemergence, 31 g ai/ha): 100; Ragweed plant response rating (0 to 100 scale) [15, 18]: 100; Pigweed plant response rating (0 to 100 scale) ([16]; Postemergence, 31 g ai/ha): 60; Pigweed plant response rating (0 to 100 scale) [16, 18]: 90; Wheat plant response rating (0 to 100 scale) ([17]; Postemergence, 31 g ai/ha): 0; Wheat plant response rating (0 to 100 scale) [17, 18]: 0
CCO/N=C(\c1c(O)c(Cl)nn(C)c1=O)c1cc(Br)cc2ccccc12 [Compound 235] | 0 | 0 | 30 | 90 | 90 | 100 | 0 | 70 | 100 | 90 | 90 | 75 | 60 | 0 | 0 | 0 | 40 | 80 | 90 | 90 | Corn plant response rating (0 to 100 scale) (corn (Zea mays); Postemergence, 31 g ai/ha): 0; Corn plant response rating (0 to 100 scale) (corn (Zea mays); [18]): 10; Barnyardgrass plant response rating (0 to 100 scale) ([12]; Postemergence, 31 g ai/ha): 60; Barnyardgrass plant response rating (0 to 100 scale) [12, 18]: 90; Kochia plant response rating (0 to 100 scale) (kochia (Bassia scoparia) [13]; Postemergence, 31 g ai/ha): 50; Kochia plant response rating (0 to 100 scale) (kochia (Bassia scoparia) [13]; [18]): 60; Blackgrass plant response rating (0 to 100 scale) ([14]; Postemergence, 31 g ai/ha): 20; Blackgrass plant response rating (0 to 100 scale) [14, 18]: 20; Ragweed plant response rating (0 to 100 scale) ([15]; Postemergence, 31 g ai/ha): 100; Ragweed plant response rating (0 to 100 scale) [15, 18]: 100; Pigweed plant response rating (0 to 100 scale) ([16]; Postemergence, 31 g ai/ha): 50; Pigweed plant response rating (0 to 100 scale) [16, 18]: 90; Wheat plant response rating (0 to 100 scale) ([17]; Postemergence, 31 g ai/ha): 0; Wheat plant response rating (0 to 100 scale) [17, 18]: 0
CCO/N=C(/c1c(O)c(Cl)nn(C)c1=O)c1cc(Br)cc2ccccc12 [Compound 236] | 0 | 20 | 80 | 100 | 90 | 90 | 0 | 40 | 10 | 70 | 85 | 70 | 35 | 0 | 0 | 20 | 60 | 90 | 90 | 100 | Corn plant response rating (0 to 100 scale) (corn (Zea mays); Postemergence, 31 g ai/ha): 20; Corn plant response rating (0 to 100 scale) (corn (Zea mays); [18]): 30; Barnyardgrass plant response rating (0 to 100 scale) ([12]; Postemergence, 31 g ai/ha): 70; Barnyardgrass plant response rating (0 to 100 scale) [12, 18]: 90; Kochia plant response rating (0 to 100 scale) (kochia (Bassia scoparia) [13]; Postemergence, 31 g ai/ha): 30; Kochia plant response rating (0 to 100 scale) (kochia (Bassia scoparia) [13]; [18]): 50; Blackgrass plant response rating (0 to 100 scale) ([14]; Postemergence, 31 g ai/ha): 0; Blackgrass plant response rating (0 to 100 scale) [14, 18]: 30; Ragweed plant response rating (0 to 100 scale) ([15]; Postemergence, 31 g ai/ha): 100; Ragweed plant response rating (0 to 100 scale) [15, 18]: 100; Pigweed plant response rating (0 to 100 scale) ([16]; Postemergence, 31 g ai/ha): 20; Pigweed plant response rating (0 to 100 scale) [16, 18]: 60; Wheat plant response rating (0 to 100 scale) ([17]; Postemergence, 31 g ai/ha): 0; Wheat plant response rating (0 to 100 scale) [17, 18]: 0
CO/N=C(\c1c(O)c(Cl)nn(C)c1=O)c1cc(Br)cc2ccccc12 [Compound 250] | 0 | 0 | 40 | 80 | 70 | 80 | 0 | 80 | 10 | 70 | 70 | 85 | 25 | 10 | 0 | 0 | 20 | 80 | 90 | 100 | Corn plant response rating (0 to 100 scale) (corn (Zea mays); Postemergence, 31 g ai/ha): 0; Corn plant response rating (0 to 100 scale) (corn (Zea mays); [18]): 10; Barnyardgrass plant response rating (0 to 100 scale) ([12]; Postemergence, 31 g ai/ha): 50; Barnyardgrass plant response rating (0 to 100 scale) [12, 18]: 80; Kochia plant response rating (0 to 100 scale) (kochia (Bassia scoparia) [13]; Postemergence, 31 g ai/ha): 40; Kochia plant response rating (0 to 100 scale) (kochia (Bassia scoparia) [13]; [18]): 60; Blackgrass plant response rating (0 to 100 scale) ([14]; Postemergence, 31 g ai/ha): 10; Blackgrass plant response rating (0 to 100 scale) [14, 18]: 30; Ragweed plant response rating (0 to 100 scale) ([15]; Postemergence, 31 g ai/ha): 100; Ragweed plant response rating (0 to 100 scale) [15, 18]: 100; Pigweed plant response rating (0 to 100 scale) ([16]; Postemergence, 31 g ai/ha): 50; Pigweed plant response rating (0 to 100 scale) [16, 18]: 70; Wheat plant response rating (0 to 100 scale) ([17]; Postemergence, 31 g ai/ha): 0; Wheat plant response rating (0 to 100 scale) [17, 18]: 0
